Experimental data reported in patent US5496533A, “Rhenium complexes” (Australian Nuclear Science & Technology Organisation, priority 1992, dated 1996).
Read-outs that look alike come from different tables or passages of the source.

Test: Hygroscopic nature of the HCl salts
Type: physicochemical
Description: To a solution of N-methyl-bicyclic compound (2) (10 mmole) in dry THF (100-150ml) was added a large excess of LiAlH4 (30 mmole), and the mixture was refluxed for about 24 hr. The reaction mixture was quenched with […]. NH4 Cl, and filtered. The contents of the funnel were washed with 100ml of CHCl3 twice and the combined filtrate of THF and CHCl3 was evaporated to dryness under reduced pressure. The residue was dissolved in ether (100 ml), and the hydrochloride salt was made by addition of ethanol--HCl and removal of organic solvent under reduced pressure.
To a solution of N-acyl-bicyclic compound (3) (10 mmole) in dry tetrahydrofuran (THF) (100-150ml) was added a large excess of LiAlH4 (50 mmole), and the mixture was refluxed for about 24 hr. The reaction mixture was quenched with satd. NH4 Cl, and filtered. The contents of the funnel were washed with 100 ml of CHCl3 twice and the combined filtrate of THF and CHCl3 was evaporated to dryness under reduced pressure. Water was added (100 ml), and the pH was adjusted to 3.0 with concentrated HCl. The mixture was extracted with diethyl ether (80 ml/extraction) to remove ether soluble impurities. These ether solutions were discarded. The pH was then adjusted to 8.0 and extracted with fresh ether. These ether solutions were dried (Na2 SO4), filtered and evaporated under reduced pressure. […]

hygroscopic nature of HCl salts: very hygroscopic
hygroscopic nature of HCl salts (listed as 4(N--Me)): strong hygroscopic nature
Structure (SMILES): CN(CCNCC(C)(C)S)CC(C)(C)S [N-methyl compound (4), 2,2,9,9-pentamethyl-4-N-methyl-4,7-diaza-1,10-decanedithiol]
